The values that follow come from PubChem BioAssay AID328 (DTP/NCI, 2004).

Several values for one entry are separate records, joined by “and”; a condition that tells them apart may be missing. Equal entries are not always repeated. Toxic doses and inconclusive results are not listed.

For the experiment, the system named is BDF1 mice, P388 leukemia ip, median survival T/C. The experiment in a line: NCI In Vivo Anticancer Drug Screen. Data for tumor model P388 Leukemia (intraperitoneal) in B6D2F1 (BDF1) mice. Particulars: endpoint: median survival time, higher = longer survival. An outline of the steps: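 Antitumour effect was judged in vivo: survival in drug-treated mice, normalised to that of vehicle-dosed controls, gives the reported T/C.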

The mark [1] stands for this setting: dose: 25.0 mg/kg/injection, schedule: Q01DX009 (ip), vehicle: saline with Tween-80.
[2] abbreviates: dose: 50.0 mg/kg/injection, schedule: Q01DX009 (ip), vehicle: saline with Tween-80.
The mark [3] stands for this setting: dose: 100.0 mg/kg/injection, schedule: Q04DX003 (ip), vehicle: Klucel (hydroxypropylcellulose) (HPC).
Setting [4] is: dose: 200.0 mg/kg/injection, schedule: Q04DX003 (ip), vehicle: Klucel (hydroxypropylcellulose) (HPC).
The mark [5] stands for this setting: dose: 100.0 mg/kg/injection, schedule: Q01DX009 (ip), vehicle: saline with Tween-80.
[6] abbreviates: dose: 200.0 mg/kg/injection, schedule: Q01DX009 (ip), vehicle: saline with Tween-80.
[7] abbreviates: dose: 100.0 mg/kg/injection, schedule: Q01DX009 (ip), vehicle: Klucel (hydroxypropylcellulose) (HPC).
Setting [8] is: dose: 200.0 mg/kg/injection, schedule: Q01DX009 (ip), vehicle: Klucel (hydroxypropylcellulose) (HPC).
[9] abbreviates: dose: 400.0 mg/kg/injection, schedule: Q01DX009 (ip), vehicle: Klucel (hydroxypropylcellulose) (HPC).
[10] abbreviates: dose: 400.0 mg/kg/injection, schedule: Q04DX003 (ip), vehicle: Klucel (hydroxypropylcellulose) (HPC).
Setting [11] is: dose: 100.0 mg/kg/injection, schedule: Q04DX003 (ip), vehicle: saline with Tween-80.
The mark [12] stands for this setting: dose: 200.0 mg/kg/injection, schedule: Q04DX003 (ip), vehicle: saline with Tween-80.
Setting [13] is: dose: 50.0 mg/kg/injection, schedule: Q01DX009 (ip), vehicle: Klucel (hydroxypropylcellulose) (HPC).
Where [14] appears, read: dose: 50.0 mg/kg/injection, schedule: Q01DX009 (ip), vehicle: other.
[15] abbreviates: dose: 50.0 mg/kg/injection, schedule: Q04DX003 (ip), vehicle: saline with Tween-80.

For the compound `C=C(C)C(=O)O[C@H]1CC2=CC(CC(C)=C[C@H]3OC(=O)C(=C)C13)OC2=O` (stereo partly specified), the T/C was 109 % of control (dose: 12.5 mg/kg/injection, schedule: Q01DX001 (ip), vehicle: saline with Tween-80); 120 % of control (dose: 25.0 mg/kg/injection, schedule: Q01DX001 (ip), vehicle: saline with Tween-80); 107 % of control and 111 % of control (dose: 50.0 mg/kg/injection, schedule: Q01DX001 (ip), vehicle: saline with Tween-80).
Consider `c1ccc(C(Nc2nccs2)Nc2nccs2)cc1`, for which the T/C (dose: 12.5 mg/kg/injection, schedule: Q01DX009 (ip), vehicle: saline with Tween-80) is 112 % of control; the T/C under setting [1] was 108 % of control; the T/C under setting [2] was 96 % of control and 108 % of control.
For the compound `CC(Sc1ncnc2nc[nH]c12)c1ccccc1` (stereo unspecified), the T/C (dose: 50.0 mg/kg/injection, schedule: Q04DX003 (ip), vehicle: Klucel (hydroxypropylcellulose) (HPC)) is 100 % of control; the T/C under setting [3] is 100 % of control; the T/C under setting [4] was 110 % of control.
Turning to `CNc1ccc([N+](=O)[O-])c2no[n+]([O-])c12`, the T/C by setting is: (dose: 15.0 mg/kg/injection, schedule: Q01DX009 (ip), vehicle: saline with Tween-80) 90 % of control; (dose: 30.0 mg/kg/injection, schedule: Q01DX009 (ip), vehicle: saline with Tween-80) 93 % of control; (dose: 60.0 mg/kg/injection, schedule: Q01DX009 (ip), vehicle: saline with Tween-80) 102 % of control.
As to `S=C(Cc1ccccc1)N1CCN(c2ccc(Cl)cc2)CC1`, the T/C is, setting by setting: under setting [2], 104 % of control; under setting [5], 100 % of control; under setting [6], 100 % of control.
Consider `CCOC(=O)CNCc1ccc(Cl)c(Cl)c1`, for which the T/C (dose: 50.0 mg/kg/injection, schedule: Q04DX003 (ip), vehicle: water) is 111 % of control; the T/C (dose: 100.0 mg/kg/injection, schedule: Q04DX003 (ip), vehicle: water) was 113 % of control; the T/C (dose: 200.0 mg/kg/injection, schedule: Q04DX003 (ip), vehicle: water) is 111 % of control.
As to `COc1cc2c(cc1OC)C(=O)C(C(=O)c1ccccc1)C2` (stereo unspecified), the T/C is, setting by setting: under setting [7], 100 % of control; under setting [3], 100 % of control; under setting [8], 100 % of control; under setting [4], 100 % of control; under setting [9], 91 % of control; under setting [10], 112 % of control.
As for `CC1(C)COC(c2ccc(C(C)(C)C)cc2C(O)(c2cc(C(C)(C)C)ccc2C2=NC(C)(C)CO2)c2cc(C(C)(C)C)ccc2C2=NC(C)(C)CO2)=N1`, the T/C is 92 % of control and 94 % of control under setting [11]; 94 % of control under setting [12]; 90 % of control and 94 % of control (dose: 400.0 mg/kg/injection, schedule: Q04DX003 (ip), vehicle: saline with Tween-80).
Regarding `CC(C)(C)C1C2N1C1(c3ccccc3)OC2(c2ccccc2)c2ccccc21` (stereo unspecified), the T/C is, setting by setting: under setting [13], 106 % of control; under setting [7], 100 % of control; under setting [8], 104 % of control.
With `CC(=O)NNc1ccc([N+](=O)[O-])cc1`, the T/C was 100 % of control under setting [7]; 105 % of control under setting [3]; 90 % of control under setting [8]; 90 % of control under setting [4]; 90 % of control under setting [9]; 90 % of control under setting [10].
For `O=c1[nH]c2cc(Cl)c(Cl)cc2o1`, the T/C is, setting by setting: under setting [13], 115 % of control; under setting [2], 104 % of control; under setting [7], 115 % of control; under setting [5], 100 % of control; under setting [11], 100 % of control; under setting [8], 110 % of control. Further, the T/C by setting is: under setting [6], 104 % of control; under setting [12], 95 % of control.
Regarding `O=C(NC(Cl)=C(Cl)Cl)P(=O)(c1ccccc1)c1ccccc1`, the T/C runs as follows: (dose: 50.0 mg/kg/injection, schedule: Q01DX005 (ip), vehicle: saline with Tween-80) 92 % of control; (dose: 100.0 mg/kg/injection, schedule: Q01DX005 (ip), vehicle: saline with Tween-80) 111 % of control; (dose: 200.0 mg/kg/injection, schedule: Q01DX005 (ip), vehicle: saline with Tween-80) 95 % of control.
Turning to `O=C(NC(=O)c1c(F)cccc1F)Nc1ccc(Br)cc1`, the T/C was 101 % of control under setting [2], 100 % of control under setting [5] and 96 % of control under setting [6].
As to `Cc1nc(CN(C)C)c2cnccn12`, the T/C is, setting by setting: (dose: 6.25 mg/kg/injection, schedule: Q01DX009 (ip), vehicle: saline) 95 % of control; (dose: 12.5 mg/kg/injection, schedule: Q01DX009 (ip), vehicle: saline) 104 % of control; (dose: 25.0 mg/kg/injection, schedule: Q01DX009 (ip), vehicle: saline) 100 % of control.
As for `COc1cc2c(c(OC)c1OC)-c1ccc(SCc3ccccc3)c(=O)cc1[C@@H](NC(C)=O)CC2`, the T/C is 117 % of control (dose: 8.2 mg/kg/injection, schedule: Q01DX009 (ip), vehicle: Klucel (hydroxypropylcellulose) (HPC)) and 170 % of control (dose: 12.5 mg/kg/injection, schedule: Q01DX009 (ip), vehicle: Klucel (hydroxypropylcellulose) (HPC)).
For `ClC1C(Cl)C2CC1C1OC21` (stereo unspecified), the T/C under setting [14] was 101 % of control; the T/C (dose: 100.0 mg/kg/injection, schedule: Q01DX009 (ip), vehicle: other) was 100 % of control; the T/C (dose: 200.0 mg/kg/injection, schedule: Q01DX009 (ip), vehicle: other) is 100 % of control.
As for `O=C(CBr)c1ccc(/C=C/c2ccc(Cl)cc2)cc1`, the T/C under setting [2] was 95 % of control, the T/C under setting [15] is 109 % of control, the T/C under setting [5] is 120 % of control and the T/C under setting [11] was 109 % of control.
As to `CCCOP(=O)(OCCC)C(OC(=O)C(C)C)=C(C)C`, the T/C is, setting by setting: under setting [11], 120 % of control; under setting [12], 105 % of control.
On to `CCO/C=C/C=C1C(=O)N(C)C(=O)N(C)C1=O`, for which the T/C under setting [14] is 122 % of control.
As to `CCCCC(=O)c1ccc(Cl)cc1`, the T/C by setting is: under setting [7], 105 % of control; under setting [3], 104 % of control; under setting [8], 110 % of control; under setting [4], 100 % of control; under setting [9], 115 % of control; under setting [10], 100 % of control.
As for `CC(=O)NCCSC(=O)C(=O)SCCNC(C)=O`, the T/C was 100 % of control (dose: 75.0 mg/kg/injection, schedule: Q01DX009 (ip), vehicle: Klucel (hydroxypropylcellulose) (HPC)) and 95 % of control (dose: 150.0 mg/kg/injection, schedule: Q01DX009 (ip), vehicle: Klucel (hydroxypropylcellulose) (HPC)).
Turning to `[N-]=[N+]=NC(=O)c1cccs1`, the T/C (dose: 50.0 mg/kg/injection, schedule: Q01DX009 (ip), vehicle: saline + alcohol) is 99 % of control.
For the compound `CC1(C)N=C(N)N=C(N)N1c1ccc(OCCCNC(=O)Nc2cccc(S(=O)(=O)F)c2)c(Cl)c1`, the T/C is, setting by setting: under setting [1], 177 % of control; (dose: 25.0 mg/kg/injection, schedule: Q04DX003 (ip), vehicle: saline with Tween-80) 150 % of control; under setting [2], 200 % of control; under setting [15], 150 % of control; (dose: 66.0 mg/kg/injection, schedule: Q01DX009 (ip), vehicle: saline with Tween-80) 177 % of control; under setting [5], 86 % of control and 213 % of control.
On to `ClC(Cl)(Cl)c1cccc(C(Cl)(Cl)Cl)c1`, for which the T/C reads like this: under setting [3], 115 % of control; under setting [4], 120 % of control; (dose: 266.0 mg/kg/injection, schedule: Q04DX003 (ip), vehicle: Klucel (hydroxypropylcellulose) (HPC)) 90 % of control.
In the case of `Br/C(C=Nc1ccccc1)=C\Nc1ccccc1`, the T/C under setting [5] is 100 % of control and the T/C under setting [6] is 110 % of control.
As for `N#CC1c2ccccc2C=NN1C(=O)N(c1ccccc1)c1ccccc1` (stereo unspecified), the T/C by setting is: (dose: 100.0 mg/kg/injection, schedule: Q04DX003 (ip), vehicle: other) 90 % of control; (dose: 200.0 mg/kg/injection, schedule: Q04DX003 (ip), vehicle: other) 100 % of control; (dose: 400.0 mg/kg/injection, schedule: Q04DX003 (ip), vehicle: other) 100 % of control.
`CCCCCCCCCCCCCCCCCOc1ccc2ccccc2c1`: the T/C is 100 % of control (dose: 25.0 mg/kg/injection, schedule: Q01DX001 (ip), vehicle: saline sonified); 100 % of control (dose: 50.0 mg/kg/injection, schedule: Q01DX001 (ip), vehicle: saline sonified); 90 % of control (dose: 100.0 mg/kg/injection, schedule: Q01DX001 (ip), vehicle: saline sonified).
